We go through eleven compounds from US11192893B2, “Pyrazoloquinazolinone antitumor agents” (The Rockefeller University, priority 2017, dated 2021).

This experiment has as its system Hedgehog pathway activity. Nature of the experiment: Shh-Light luciferase reporter assay of Hedgehog pathway activity (Shh-Light2 cells, SAG-stimulated). Conditions: for activity at 2 µM: 2 μM compound, read-out: SHH-light % residual @ 2 μM; for activity at 2 µM / activity at 20 µM: SAG 500 nM; for activity at 20 µM: 20 μM compound, read-out: SHH-light % residual @ 20 μM; for IC50: Table 2, SAG 500 nM, 28-32 hr treatment, read-out: Shh-light IC50. Type of experiment: cell-based. As for the experimental part:
To examine the inhibition of dynein 2 in cell-based assays, an established luciferase reporter-based cellular assay of Hedgehog pathway activity was employed [Taipale et al., Nature. 2000; 406(6799): 1005-9]. Signaling in this pathway depends on the function of dynein 2. In this setting, expression of luciferase driven by Hedgehog pathway activity was inhibited by compound 5 with an IC50 value of 0.9±0.5 μM. […] The potencies of these compounds in this cell-based assay match the rank-order of dynein 2 inhibition in vitro. In these assays, Hedgehog pathway activity was stimulated using the Synthetic Agonist of Smoothened (SAG). This compound competes with many Hedgehog pathway inhibitors for binding to Smoothened, a key node in the signaling pathway.
SHH-Light Assay (Steinman et al. eLife 2017; 6:e25174.)
NIH-3T3 cells stably expressing a luciferase reporter downstream of a Gli binding site (Shh-Light2 cells, RRID: CVCL_2721) were maintained in DMEM with 10% bovine calf serum (BCS). Cells were seeded at a density of 30,000 cells/well in 96-well tissue culture-treated plates (Corning, cat #353072) in 100 μL in DMEM+10% BCS, and incubated for 48 hr (Taipale et al., 2000). Wells were washed briefly with PBS. Next […] of low serum media (DMEM+0.5% BCS) containing smoothened agonist (SAG, 500 nM), and either solvent control (0.2% DMSO) or test compound (serial three-fold dilutions of each inhibitor starting from 20 μM) were added to the wells. After 28-32 hr of inhibitor treatment, cells were washed with 50 μL PBS and lysed for >30 min in 30 μL Passive Lysis Buffer (Promega Dual Luciferase kit, cat E1910). 5 uL of each lysate was transferred to white, solid-bottom 96-well plates (Greiner, cat #655075), followed by rapid addition (within 30 s) of 30 μL of Luciferase Assay Reagent using a multichannel pipette. Luminescence for each condition was read using a Synergy Neo plate reader (5 s integration time per well). Cell line identity was confirmed by measurement of the degree of response to Hedgehog pathway stimulation by the synthetic agonist SAG and using previously published values from our groups and others as references (Firestone et al., 2012; Hyman et al., 2009).
A general note: In a reporter assay the amount or activity of a reporter protein is the signal.

In the case of `N#Cc1ccc2[nH]c3c(C#N)c(C4(c5ccc(Cl)cc5)CC4)nn3c(=O)c2c1` [Example 10, 2-[1-(4-Chlorophenyl)cyclopropyl]-9-oxo-4H-pyrazolo[5,1-b]quinazoline-3,7-dicarbonitrile], the activity at 2 µM turned out to be 70.1% and the activity at 20 µM is 10%.

A word on the IC50: it is the concentration at which inhibition is half-maximal. Take `N#Cc1c(C2(c3ccc(Cl)cc3)CC2)nn2c(=O)c3cc(C(F)(F)F)ccc3[nH]c12` [Example 11, 2-[1-(4-Chlorophenyl)cyclopropyl]-9-oxo-7-(trifluoromethyl)-4H-pyrazolo[5,1-b]quinazoline-3-carbonitrile]: the activity at 2 µM was found to be 17.7%, the activity at 20 µM was -4.1% and the IC50 is 0.73 µM.

As to `N#Cc1c(C2CCC(c3ccc(Cl)cc3)CC2)nn2c(=O)c3cc(C4CC4)ccc3[nH]c12` (stereo not drawn) [Example 13, 2-[4-(4-Chlorophenyl)cyclohexyl]-7-cyclopropyl-9-oxo-4H-pyrazolo[5,1-b]quinazoline-3-carbonitrile], the activity at 2 µM is -3.1%, the activity at 20 µM was -3.6% and the IC50 stood at 0.34 µM.

On to `N#Cc1c(C2(c3ccc(Cl)cc3)CC2)nn2c(=O)c3cc(C4CC4)ccc3[nH]c12` [Example 14, 2-[1-(4-Chlorophenyl)cyclopropyl]-7-cyclopropyl-9-oxo-4H-pyrazolo[5,1-b]quinazoline-3-carbonitrile], for which the activity at 2 µM is -2.3%, the activity at 20 µM was -1.8% and the IC50 is 0.47 µM.

For `N#Cc1c(C2CCC(c3ccc(Cl)cc3)CC2)nn2c(=O)c3cc(C(F)(F)F)ccc3[nH]c12` (stereo not drawn) [Example 15, 2-[4-(4-Chlorophenyl)cyclohexyl]-9-oxo-7-(trifluoromethyl)-4H-pyrazolo[5,1-b]quinazoline-3-carbonitrile], the activity at 2 µM is -3.1%, the activity at 20 µM was -4% and the IC50 is 0.32 µM.

For the compound `N#Cc1c(C2CCN(c3ccc(Cl)cc3)CC2)nn2c(=O)c3cc(C(F)(F)F)ccc3[nH]c12` [Example 16, 2-[1-(4-Chlorophenyl)-4-piperidyl]-9-oxo-7-(trifluoromethyl)-4H-pyrazolo[5,1-b]quinazoline-3-carbonitrile], the activity at 2 µM stood at 33.7% and the activity at 20 µM was -4.1%.

Turning to `N#Cc1c(C2CCC(c3ccc(Cl)cc3)CC2)nn2c(=O)c3cc(Cl)ccc3[nH]c12` (stereo not drawn) [Example 17, 7-Chloro-2-[4-(4-chlorophenyl)cyclohexyl]-9-oxo-4H-pyrazolo[5,1-b]quinazoline-3-carbonitrile], the activity at 2 µM is -2.3%, the activity at 20 µM was -3.9% and the IC50 was found to be 0.6 µM.

Turning to `N#Cc1c(C2(c3ccc(Cl)cc3)CC2)nn2c(=O)c3cc(Cl)ccc3[nH]c12` [Example 18, 7-Chloro-2-[1-(4-chlorophenyl)cyclopropyl]-9-oxo-4H-pyrazolo[5,1-b]quinazoline-3-carbonitrile], the activity at 2 µM is -0.5%, the activity at 20 µM turned out to be 2.8% and the IC50 came out at 0.76 µM.

In the case of `N#Cc1c(C2(c3ccc(Cl)cc3)CC2)nn2c(=O)c3cc(F)ccc3[nH]c12` [Example 19, 2-[1-(4-Chlorophenyl)cyclopropyl]-7-fluoro-9-oxo-4H-pyrazolo[5,1-b]quinazoline-3-carbonitrile], the activity at 2 µM amounted to 1.4%, the activity at 20 µM is -0.4% and the IC50 turned out to be 1.6 µM.

`N#Cc1c(N2CCC(c3ccc(Cl)cc3)CC2)nn2c(=O)c3cc(Cl)ccc3[nH]c12` [Example 20, 7-Chloro-2-[4-(4-chlorophenyl)-1-piperidyl]-9-oxo-4H-pyrazolo[5,1-b]quinazoline-3-carbonitrile]: the activity at 2 µM is -2.5%, the activity at 20 µM is -3.1% and the IC50 amounted to 0.33 µM.

With `N#Cc1c(C2CCN(c3ccc(Cl)cc3)CC2)nn2c(=O)c3cc(Cl)ccc3[nH]c12` [Example 21, 7-Chloro-2-[1-(4-chlorophenyl)-4-piperidyl]-9-oxo-4H-pyrazolo[5,1-b]quinazoline-3-carbonitrile], the activity at 2 µM is -2% and the activity at 20 µM was -2.6%.
